Results published in patent publication US20100280061A1, “NOVEL ANALGESIC THAT BINDS FILAMIN A” (priority 2009, published 2010).

Experiments:
[1] = molecular target: T1, mu opiate receptor (MOR) (Rattus norvegicus, UniProt P33535); experiment: [35S]GTPγS binding assay using striatal membranes (MOR agonist activity); type: biochemical; design: MOR agonist activity, [35S]GTPγS binding to Gαo, 0.1 μM / MOR agonist activity, [35S]GTPγS binding to Gαo, 1 μM / MOR agonist activity, [35S]GTPγS binding to Gαo, 1 μM + BFNA: reference not given here; details: for MOR agonist activity, [35S]GTPγS binding to Gαo, 0.1 μM: 0.1 μM compound; for MOR agonist activity, [35S]GTPγS binding to Gαo, 0.1 μM / MOR agonist activity, [35S]GTPγS binding to Gαo, 1 μM: striatal membranes; for MOR agonist activity, [35S]GTPγS binding to Gαo, 1 μM + BFNA: 1 μM compound + 1 μM β-funaltrexamine; for MOR agonist activity, [35S]GTPγS binding to Gαo, 1 μM: 1 μM compound
T1 construct: from tissue; host or cells: striatal tissue (membrane preparation)
T1 sequence (P33535 whole entry): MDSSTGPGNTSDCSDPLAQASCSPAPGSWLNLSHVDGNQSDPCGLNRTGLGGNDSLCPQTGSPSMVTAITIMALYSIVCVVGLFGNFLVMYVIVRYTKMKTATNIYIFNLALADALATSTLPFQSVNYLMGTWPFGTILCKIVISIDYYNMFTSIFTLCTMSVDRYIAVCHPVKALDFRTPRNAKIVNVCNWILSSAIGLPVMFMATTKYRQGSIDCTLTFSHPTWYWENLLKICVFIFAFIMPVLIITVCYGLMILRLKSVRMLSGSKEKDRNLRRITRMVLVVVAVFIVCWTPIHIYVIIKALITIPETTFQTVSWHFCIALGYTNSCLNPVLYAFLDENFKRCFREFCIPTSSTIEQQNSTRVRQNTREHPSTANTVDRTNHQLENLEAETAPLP
Method: To assess the mu opiate receptor (MOR) agonist activity of positive compounds from the FLNA screening, compounds were tested in a [^35S]GTPγS binding assay using striatal membranes. Our previous study has shown that in striatal membranes, activation of MOR leads to an increase in [^35S]GTPγS binding to Gαo (Wang et al., 2005 Neuroscience 135:247-261).
Striatal tissue was homogenized in 10 volumes of ice cold 25 mM HEPES buffer, pH 7.4, which contained 1 mM EGTA, 100 mM sucrose, 50 μg/ml leupeptin, 0.04 mM PMSF, 2 μg/ml soybean trypsin inhibitor and 0.2% 2-mercaptoethanol. The homogenates were centrifuged at 800×g for 5 minutes and the supernatants were centrifuged at 49,000×g for 20 minutes. The resulting pellets were suspended in 10 volume of reaction buffer, which contained 25 mM HEPES, pH 7.5, 100 mM NaCl, 50 μg/ml leupeptin, 2 μg/ml soybean trypsin inhibitor, 0.04 mM PMSF and 0.02% […].
The resultant striatal membrane preparation (200 μg) was admixed and maintained (incubated) at 30° C. for 5 minutes in reaction buffer as above that additionally contained 1 mM MgCl2 and 0.5 nM [^35S]GTPγS (0.1 μCi/assay, PerkinElmer Life and Analytical Sciences) in a total volume of 250 μl and continued for 5 minutes in the absence or presence of 0.1-10 μM of an assayed compound of interest. The reaction was terminated by dilution with 750 μl of ice-cold reaction buffer that contained 20 mM MgCl2 and 1 mM EGTA and immediate centrifugation at 16,000×g for 5 minutes.
The resulting pellet was solubilized by sonicating for 10 seconds in 0.5 ml of immunoprecipitation buffer containing 0.5% digitonin, 0.2% sodium cholate and 0.5% NP-40. Normal rabbit serum (1 μl) was added to 1 ml of lysate and incubated at 25° C. for 30 minutes. Nonspecific immune complexes were removed by incubation with 25 μl of protein A/G-conjugated agarose beads at 25° C. for 30 minutes followed by centrifugation at 5,000×g at 4° C. for 5 minutes. The supernatant was divided and separately incubated at 25° C. for 30 minutes with antibodies raised against Gαo proteins (1:1,000 dilutions).
The immunocomplexes so formed were collected by incubation at 25° C. for 30 minutes with 40 μl of agarose-conjugated protein A/G beads and centrifugation at 5,000×g at 4° C. for 5 minutes. The pellet was washed and suspended in buffer containing 50 mM Tris-HCl, pH 8.0, and 1% NP-40. The radioactivity in the suspension was determined by liquid scintillation spectrometry. […] DAMGO (H-Tyr-D-Ala-Gly-N-MePhe-Gly-OH; 1 or 10 μM) was used as a positive control.

[2] = molecular target: Bn-VAKGL pentapeptide of filamin A (FLNA) (Homo sapiens, UniProt P21333); experiment: FITC-NLX-based FLNA screening assay (FLNA peptide binding assay); details: 10 nM FITC-NLX; for Percent inhibition of FITC-NLX binding, 0.01 μM: 0.01 μM compound; for Percent inhibition of FITC-NLX binding, 0.1 μM: 0.1 μM compound; for Percent inhibition of FITC-NLX binding, 1 μM: 1 μM compound
Method: The final assay volume is 100 μl.
Compounds are tested in triplicate or quadruplicate.

| SMILES | MOR agonist activity, [35S]GTPγS binding to Gαo, 0.1 μM [1] | MOR agonist activity, [35S]GTPγS binding to Gαo, 1 μM + BFNA [1] | MOR agonist activity, [35S]GTPγS binding to Gαo, 1 μM [1] | Percent inhibition of FITC-NLX binding, 0.01 μM [2] | Percent inhibition of FITC-NLX binding, 0.1 μM [2] | Percent inhibition of FITC-NLX binding, 1 μM [2] | % DAMGO + BFNA ([1]; 1 μM + BFNA, relative to DAMGO + BFNA) |
| --- | --- | --- | --- | --- | --- | --- | --- |
| COc1c2c(cc3c1C(CC(O)CCc1ccccc1)N(C)CC3)OCO2 (stereo not shown) [B0051] | 115.6% | 43.8% | 161.9% | 29.9% | 35.7% | 43.7% | – |
| COc1c2c(cc3c1C(CC(=O)CCc1ccccc1)N(C)CC3)OCO2 (stereo not shown) [B0050] | 98.2% | 48.8% | 211.0% | 29.2% | 34.5% | 39.8% | – |
| COc1c2c(cc3c1C(CC(=O)CCc1ccc(O)cc1)[N+](C)(C)CC3)OCO2.[I-] (stereo not shown) [B0028] | 199.1% | 55.0% | 357.7% | 38.2% | 42.8% | 49.1% | – |
| COc1ccc(CCC(O)CC2c3c(cc4c(c3OC)OCO4)CCN2C)cc1 (stereo not shown) [B0048] | 185.1% | 78.5% | 223.4% | 34.7% | 41.9% | 43.9% | – |
| COc1c2c(cc3c1C(CC(=O)c1ccc(C#N)cc1)[N+](C)(C)CC3)OCO2 (stereo not shown) [B0001] | 128.2% | 28.0% | 202.3% | – | – | – | – |
| COc1c2c(cc3c1C(CC(=O)Cc1ccc(Br)cc1)[N+](C)(C)CC3)OCO2 (stereo not shown) [B0011] | 158.6% | 78.0% | 212.6% | 40.9% | 50.3% | 55.8% | – |
| COc1ccc(CCC(=O)CC2c3c(cc4c(c3OC)OCO4)CC[N+]2(C)C)cc1OC.[I-] (stereo not shown) [B0042] | 69.9% | 43.1% | 107.5% | 40.8% | 46.4% | 51.6% | – |
| COc1c2c(cc3c1C(CC(=O)Cc1ccccc1C)N(C)CC3)OCO2 (stereo not shown) [B0053] | 160.2% | 134.3% | 299.8% | – | – | – | – |
| COc1ccc(OC)c(CCC(=O)CC2c3c(cc4c(c3OC)OCO4)CC[N+]2(C)C)c1 (stereo not shown) [B0044] | 87.3% | 134.6% | 170.0% | 35.2% | 39.5% | 44.4% | – |
| COc1ccc(C(=O)CC2c3c(cc4c(c3OC)OCO4)CC[N+]2(C)C)cc1 (stereo not shown) [B0024] | 155.8% | 20.2% | 285.9% | 34.8% | 43.4% | 47.7% | – |
| COc1c2c(cc3c1C(CC(=O)Cc1ccc(C#N)cc1)[N+](C)(C)CC3)OCO2 (stereo not shown) [B0012] | 167.4% | 145.1% | 212.0% | 39.4% | 46.9% | 51.7% | – |
| COc1c2c(cc3c1C(CC(=O)CCc1ccc(F)cc1)[N+](C)(C)CC3)OCO2 (stereo not shown) [B0018] | 118.8% | 45.6% | 143.0% | 37.2% | 43.7% | 47.6% | – |
| COc1c2c(cc3c1C(CC(O)CCc1ccccc1)[N+](C)(C)CC3)OCO2 (stereo not shown) [B0052] | 98.2% | 40.9% | 151.7% | 30.2% | 39.1% | 44.3% | – |
| COc1cccc(OC)c1C(=O)CC1c2c(cc3c(c2OC)OCO3)CC[N+]1(C)C.[I-] (stereo not shown) [B0023] | 166.1% | 28.4% | 245.3% | 28.5% | 37.8% | 46.4% | – |
| COc1cc(OC)cc(C(=O)CC2c3c(cc4c(c3OC)OCO4)CC[N+]2(C)C)c1.[I-] (stereo not shown) [B0035] | 188.0% | 74.2% | 248.7% | 45.4% | 44.7% | 51.0% | – |
| COc1ccc(C(=O)CC2c3c(cc4c(c3OC)OCO4)CC[N+]2(C)C)c(O)c1.[I-] (stereo not shown) [B0033] | 149.3% | 41.9% | 188.9% | 42.1% | 46.8% | 49.4% | – |
| COc1ccc(CCC(=O)CC2c3c(cc4c(c3OC)OCO4)CC[N+]2(C)C)cc1 (stereo not shown) [B0016] | 167.7% | 72.2% | 213.6% | – | – | – | – |
| COc1ccc(CCCCC2c3c(cc4c(c3OC)OCO4)CC[N+]2(C)C)cc1 (stereo not shown) [B0056] | 174.7% | 41.8% | 288.8% | – | – | – | – |
| COc1c2c(cc3c1C(CC(=O)c1cccc(C(F)(F)F)c1)[N+](C)(C)CC3)OCO2 (stereo not shown) [B0006] | 77.0% | 18.6% | 131.3% | – | – | – | – |
| COc1ccc(CCC(=O)CC2c3c(cc4c(c3OC)OCO4)CCN2C)cc1 (stereo not shown) [B0047] | 187.8% | 68.4% | 235.6% | – | – | – | – |
| COc1c2c(cc3c1C(CC(=O)c1ccc(N4CCOCC4)cc1)[N+](C)(C)CC3)OCO2 (stereo not shown) [B0004] | 170.3% | 72.0% | 231.7% | – | – | – | 110.0% |
| COc1cc(F)ccc1C(=O)CC1c2c(cc3c(c2OC)OCO3)CC[N+]1(C)C (stereo not shown) [B0007] | 168.3% | 64.5% | 223.3% | – | – | – | – |
| COc1c2c(cc3c1C(CC(=O)Cc1ccccc1F)[N+](C)(C)CC3)OCO2.[I-] (stereo not shown) [B0055] | 162.1% | 117.5% | 338.5% | – | – | – | – |
